One experiment relates to IL-1β processing. As to the kind of experiment: IL-1β processing in infected human bladder epithelial cells with caspase inhibition (Western blot). The following applies: human bladder epithelial cells infected with acute cystitis strains, 4 h, pre-incubated with inhibitor 100 μM, 30 min. The experiment is classed as cell-based. The procedure:
Cells were cultured as described above, but in particular in 6-well plates (7×10^5 cells/well, Thermo Fisher Scientific), lysed with RIPA lysis buffer, supplemented with protease and phosphatase inhibitors (Roche Diagnostics). They may then be fractionated using NE-PER Nuclear and Cytoplasmic extraction reagents (Thermo Scientific). For Caspase inhibition, cells were pre-incubated with Z-VAD(OMe)-FMK (#BML-P416-0001, Enzo Life Science, 100 μM, 30 min). Supernatants were filtered and concentrated by trichloroacetic acid precipitation, followed by acetone desiccation. […] Bands were quantified by ImageJ. […]
Cell lysates and supernatants from infected cells were subjected to Western blot analysis, with antibodies specific for IL-1β. Two fragments of approximately 29 kDa and 16-18 kDa were detected, corresponding to the N-terminal pro-piece and mature IL-1β.
A general note: Immunoblotting shows a protein as a band on a membrane.

The subject of experiment [1] is Asc^−/− mice infected with E. coli CFT073. As to the kind of experiment: Acute cystitis immunotherapy in the experimental urinary tract infection model (Asc−/− mice infected with E. coli CFT073). The experiment is classed as in vivo. The following applies: for macroscopic bladder pathology, edema and hyperemia: vs untreated.
Another experiment concerns IL-1β. As to the kind of experiment: IL-1β in urine of treated infected Asc−/− mice (Western blot analysis of urine samples). The experiment is classed as in vivo. The following applies: CFT073, IL-1RA (Anakinra) 1 mg i.p. daily. How it is done:
IL-1β, IL-6 and IL-8 concentrations in filtered supernatants (Syringe Filter w/0.2 um PES, VWR) were determined by Immulite 1000 (Siemens) and Il-1β concentrations in cell supernatants or urine by Human or Mouse Il-1b/IL-1F2 DuoSet ELISA kits (R&D Systems). Urine MMP-7 levels were quantified with Human total MMP-7 Immunoassay Quantikine® ELISA (R&D Systems).
Cells were cultured as described above, but in particular in 6-well plates (7×10^5 cells/well, Thermo Fisher Scientific), lysed with RIPA lysis buffer, supplemented with protease and phosphatase inhibitors (Roche Diagnostics). They may then be fractionated using NE-PER Nuclear and Cytoplasmic extraction reagents (Thermo Scientific). For Caspase inhibition, cells were pre-incubated with Z-VAD(OMe)-FMK (#BML-P416-0001, Enzo Life Science, 100 μM, 30 min). Supernatants were filtered and concentrated by trichloroacetic acid precipitation, followed by acetone desiccation. […] Bands were quantified by ImageJ.
To address the contribution of MMP-7 to pathology, Asc^−/− mice were also treated with an MMP inhibitor (Batimastat), (0.5 mg in 100 μl of PBS i.p. 30 minutes before, first three and last three days of infection, FIG. 6A). […] By immunohistochemistry, some retention of unprocessed IL-1β in bladder tissue was detected, consistent with the need for MMP-7 and IL-1R to secrete mature IL-1β.

[2] abbreviates: CFT073, Anakinra 1 mg i.p. daily, 7 days.

Entries after “also recorded” stand apart in the source; their conditions may differ. Peptide text beside a SMILES is read from it. * marks the point of attachment. Cbz = O=C(OCc1ccccc1)*; CH2F = FC*

On to `COC(=O)C[C@H](NC(=O)[C@H](C)NC(=O)[C@@H](NC(=O)OCc1ccccc1)C(C)C)C(=O)CF` [Z-VAD, Z-VAD(OMe)-FMK] (Cbz-Val-Ala-Asp(OMe)-CH2F), for which the “inhibition of IL-1β processing” value in the experiment on IL-1β processing is “about 20%”.
Turning to “Anakinra: IL-1 receptor antagonist, Anakinra (Kineret, SOBI)”, in experiment [1] (setting [2]), the mucosal integrity result is reported as “maintained”; the mucosal neutrophil infiltrate result is recorded as “prevented”; the “macroscopic bladder pathology, edema and hyperemia” value is “protected”. The urine neutrophil numbers result in experiment [1] (CFT073, Anakinra 1 mg i.p. daily, 7 days after infection) was “low”. In addition, the “pathology in bladder tissue sections” value in experiment [1] (CFT073, Anakinra 1 mg i.p. daily, 7 days, H&E) is “marked reduction”. The “macroscopic bladder pathology, edema and hyperemia” value in experiment [1] (CFT073, Anakinra 1 mg i.p. daily, 7 days, listed as IL-1RA) is reported as “prevented”. Further, the bacterial counts entry in experiment [1] (CFT073, Anakinra 1 mg i.p. daily, urine, 7 days after infection) was “remained elevated”. Moreover, the “therapeutic effect / protection from acute cystitis” value in experiment [1] (E. coli CFT073, Anakinra 1 mg in 100 μl PBS i.p. 30 min before and daily after infection, 7 days, vs untreated Asc−/− mice) is “dramatic therapeutic effect; also recorded: protects; also recorded: prevented”. The “mature IL-1β in urine” value with IL-1β is “loss”.

Values taken from patent US11013786B2, “Therapy” (SELECTIMMUNE PHARMA AB, priority 2015, dated 2021).
